Increase and IC50 data for five compounds are collected here from ChEMBL document CHEMBL1147567, “Neuroprotective effects of flavones on hydrogen peroxide-induced apoptosis in SH-SY5Y neuroblostoma cells” (Bioorg Med Chem Lett, 2004).

Structures are written as SMILES.

Assay [1] has as its system SH-SY5Y. In words: Percent increase against SH-SY5Y human neuroblastoma cell viability induced by hydrogen peroxide at 10 uM concentration. It counts as functional.
Assay [2] concerns SH-SY5Y. In words: Percent increase against SH-SY5Y human neuroblastoma cell viability induced by hydrogen peroxide at 2 uM concentration. Type of assay: functional.
The subject of assay [3] is SH-SY5Y. The experiment in a line: Percent increase against SH-SY5Y human neuroblastoma cell viability induced by hydrogen peroxide at 50 uM concentration. Type of assay: functional.
The nature of assay [4]: Free radical scavenging activity of DPPH was determined. (Loss of DPPH colour is used to gauge radical scavenging.)

On to `O=c1cc(-c2ccc(O)cc2)oc2cc(O)cc(O)c12` [APIGENIN], for which the Increase in the assay with SH-SY5Y [1] is 52.4%; with SH-SY5Y [2] it was 24.6%; in the assay on SH-SY5Y [3], 63.7%. The same compound had a concentration for half-maximal inhibition (IC50) in assay [4] of more than 100 µM.

Compound `O=C1O[C@H]([C@@H](O)CO)C(O)=C1O` [ASCORBIC ACID] returned an IC50 in assay [4] of 26.5 µM.

Take `O=c1cc(-c2ccccc2)oc2cc(O)cc(O)c12` [CHRYSIN]: the IC50 in assay [4] is more than 100 µM.

Regarding `O=c1cc(-c2ccc(O)c(O)c2)oc2cc(O)cc(O)c12` [LUTEOLIN], the Increase came out at 84% with SH-SY5Y [1], 76.4% in the assay with SH-SY5Y [2] and 77.5% in the assay with SH-SY5Y [3]. In assay [4], this compound gave a half-inhibitory concentration (IC50) of 10.4 µM.

In turn, `COc1c(O)cc(O)c2c(=O)cc(-c3ccccc3)oc12` [WOGONIN] came in with a concentration for half-maximal inhibition (IC50) in assay [4] of more than 100 µM.

In general, IC50 refers to the concentration at which inhibition is half-maximal.
